Patent US8227497B2, “Dual-acting antihypertensive agents” (Theravance, Inc., priority 2008, dated 2012)

Key:
human AT1 receptor = target: T1, human AT1 receptor (Homo sapiens, UniProt P30556); experiment: AT1 radioligand binding assay (Assay 1); settings: displacement of [Eu]AngII, membranes of CHO-K1 cells expressing human AT1 receptor; read-out: pKi at the AT1 receptor (converted)
T1 construct: expressed in transfected cells; membranes
T1 sequence (P30556 1-359): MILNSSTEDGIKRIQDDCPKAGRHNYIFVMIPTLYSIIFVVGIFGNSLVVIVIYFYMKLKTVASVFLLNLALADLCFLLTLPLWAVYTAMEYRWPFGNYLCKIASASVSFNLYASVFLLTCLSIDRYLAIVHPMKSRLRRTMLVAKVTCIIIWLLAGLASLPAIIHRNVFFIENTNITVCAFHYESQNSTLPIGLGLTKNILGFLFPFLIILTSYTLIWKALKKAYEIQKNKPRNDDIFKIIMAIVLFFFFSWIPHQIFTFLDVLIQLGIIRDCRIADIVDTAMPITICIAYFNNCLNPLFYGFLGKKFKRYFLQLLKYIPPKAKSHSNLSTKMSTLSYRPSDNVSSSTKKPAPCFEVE
Protocol: These in vitro assays were used to assess the ability of test compounds to bind to the AT1 and the AT2 receptors.
Chinese hamster ovary (CHO-K1) derived cell lines stably expressing the cloned human AT1 or AT2 receptors, respectively, were grown in HAM's-F12 medium supplemented with 10% fetal bovine serum, 10 μg/ml penicillin/streptomycin, and 500 μg/ml geneticin in a 5% CO2 humidified incubator at 37° C. AT2 receptor expressing cells were grown in the additional presence of 100 nM PD123,319 (AT2 antagonist). When cultures reached 80-95% confluence, the cells were washed thoroughly in PBS and lifted with 5 mM EDTA. Cells were pelleted by centrifugation and snap frozen in MeOH-dry ice and stored at −80° C. until further use.
For membrane preparation, cell pellets were resuspended in lysis buffer (25 mM Tris/HCl pH 7.5 at 4° C., 1 mM EDTA, and one tablet of Complete Protease Inhibitor Cocktail Tablets with 2 mM EDTA per 50 mL buffer (Roche cat. #1697498, Roche Molecular Biochemicals, Indianapolis, Ind.)) and homogenized using a tight-fitting Dounce glass homogenizer (10 strokes) on ice. The homogenate was centrifuged at 1000×g, the supernatant was collected and centrifuged at 20,000×g. […] Protein concentration of the membrane suspension was determined by the method described in Bradford (1976) Anal Biochem. 72:248-54. […]

NEP enzyme = target: T2, NEP enzyme (Homo sapiens, UniProt P08473); experiment: In vitro NEP enzyme inhibition assay (Assay 2); type: biochemical; settings: fluorogenic peptide substrate, room temperature; read-out: pIC50 for the NEP enzyme (converted)
T2 construct: purchased R&D Systems, Minneapolis, Minn; 1182-ZN
T2 sequence (P08473 52-750 limits assumed): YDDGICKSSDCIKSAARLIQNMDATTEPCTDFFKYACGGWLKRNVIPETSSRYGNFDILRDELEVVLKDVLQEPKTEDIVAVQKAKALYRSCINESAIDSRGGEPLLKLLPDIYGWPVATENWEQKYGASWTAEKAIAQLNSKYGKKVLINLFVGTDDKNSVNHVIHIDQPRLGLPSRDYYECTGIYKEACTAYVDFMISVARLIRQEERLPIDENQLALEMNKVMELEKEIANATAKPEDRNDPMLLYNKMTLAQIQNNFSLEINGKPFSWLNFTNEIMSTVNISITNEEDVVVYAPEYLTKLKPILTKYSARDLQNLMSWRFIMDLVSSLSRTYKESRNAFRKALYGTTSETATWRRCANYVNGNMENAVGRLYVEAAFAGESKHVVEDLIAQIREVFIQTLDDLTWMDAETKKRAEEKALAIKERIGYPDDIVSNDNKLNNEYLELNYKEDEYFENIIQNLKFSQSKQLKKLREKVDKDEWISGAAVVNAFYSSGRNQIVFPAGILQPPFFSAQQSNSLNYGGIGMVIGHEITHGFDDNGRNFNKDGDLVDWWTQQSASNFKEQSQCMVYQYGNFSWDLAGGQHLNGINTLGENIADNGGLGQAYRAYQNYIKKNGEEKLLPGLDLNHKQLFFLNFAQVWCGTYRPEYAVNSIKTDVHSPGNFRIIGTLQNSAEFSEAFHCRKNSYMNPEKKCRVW
Protocol: The inhibitory activities of compounds at human and rat NEP and human ACE were determined using in vitro assays as described below.
Rat NEP was prepared from the kidneys of adult Sprague Dawley rats. Whole kidneys were washed in cold PBS and brought up in ice-cold lysis buffer (1% Triton X-114, 150 mM NaCl, 50 mM Tris pH 7.5; Bordier (1981) J. Biol. Chem. 256:1604-1607) in a ratio of 5 mL of buffer for every gram of kidney. Samples were homogenized using a polytron hand held tissue grinder on ice. Homogenates were centrifuged at 1000×g in a swinging bucket rotor for 5 minutes at 3° C. The pellet was resuspended in 20 mL of ice cold lysis buffer and incubated on ice for 30 minutes. […] Protein concentrations were quantitated using a BCA detection system with BSA as a standard. […]
The assays were performed in 384-well white opaque plates at room temperature using the respective fluorogenic peptides at a concentration of 10 μM in Assay Buffer (50 mM Tris/HCl at 25° C., 100 mM NaCl, 0.01% Tween-20, 1 μM Zn, 0.025% BSA). […] The rat NEP enzyme preparation was used at a concentration that yielded quantitative proteolysis of 3 μM of Mca-RRL within 20 minutes at room temperature. […]
Plates were read on a fluorometer with excitation and emission wavelengths set to 320 nm and 405 nm, respectively. […]

## CCCCc1nc(Cl)c(CO)n1Cc1ccc(-c2ccccc2S(=O)(=O)NC(=O)CNC(=O)C(Cc2ccccc2)C(=O)NO)cc1 (centres unmarked) [Example 1, 2-Benzyl-N-{2-[4′-(2-butyl-4-chloro-5-hydroxymethylimidazol-1-ylmethyl)biphenyl-2-sulfonylamino]-2-oxoethyl}-N′-hydroxymalonamide.(C2HF3O2)]
Human AT1 receptor
  Ki: < 100 nM
NEP enzyme
  IC50: ≤ 100 nM
